Patent US10851065B2 (Eisai R&D Management Co., Ltd., priority 2015, dated 2020)

Legend:
[1] = test system: MCF7-WT cells (MCF7 ER-alpha wildtype); test: In vitro proliferation (viability) assay, CellTiter-Glo, MCF7-WT cells; type: cell-based; conditions: Homo sapiens; MCF7-WT cells, 6 days, CTG vs day 0; mean ± SD-type spread (n); read-out: GI50 WT
[2] = test system: MCF7-Y537S cells (MCF7 ER-alpha Y537S mutant); test: In vitro proliferation (viability) assay, CellTiter-Glo, MCF7-Y537S cells; type: cell-based; conditions: Homo sapiens; MCF7-Y537S cells, 6 days, CTG vs day 0; mean ± SD-type spread (n); read-out: GI50 MUT (Y537S)
How it was run: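 Stable lentiviral MCF7 lines expressing WT or Y537S ESR1 seeded at 1500 cells/well; next day dosed with 10-point 1:4 dilutions in triplicate, with media/compound refreshed on day 3. CellTiter-Glo luminescence on day 6 compared with a day 0 reading to give GI50.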

Structure (SMILES) | GI50 [1] [µM] | GI50 [2] [µM]
CC/C(=C(/c1ccc(OCCNC/C=C/C(=O)N2CCOCC2)cc1)c1ccc2[nH]ncc2c1)c1ccccc1 [Compound 15, (E)-4-((2-(4-((E)-1-(1H-indazol-5-yl)-2-phenylbut-1-en-1-yl)phenoxy)ethyl)amino)-1-morpholinobut-2-en-1-one] | 0.00184 ± 0.00109 | 0.0255 ± 0.0138
CC/C(=C(/c1ccc(OCCNC/C=C/C(=O)N(C)C)nc1)c1ccc2[nH]nc(F)c2c1)c1ccc(F)cc1Cl [Compound 58, (E)-4-((2-((5-((Z)-2-(2-chloro-4-fluorophenyl)-1-(3-fluoro-1H-indazol-5-yl)but-1-en-1-yl)pyridin-2-yl)oxy)ethyl)amino)-N,N-dimethylbut-2-enamide] | 0.0013 ± 0.0004 | 0.0179 ± 0.0045
Cc1ccccc1/C(=C(\c1ccc(OCCNC/C=C/C(=O)N2CCC2)cc1)c1ccc2[nH]ncc2c1)C1CCC1 [Compound 42, (E)-1-(azetidin-1-yl)-4-((2-(4-((E)-2-cyclobutyl-1-(1H-indazol-5-yl)-2-(o-tolyl)vinyl)phenoxy)ethyl)amino)but-2-en-1-one] | 0.00268 ± 0.00166 | 0.0694 ± 0.0291
CC/C(=C(/c1ccc(OCCNC/C=C/C(=O)N(C)C)cc1)c1ccc2[nH]nc(F)c2c1)c1cc(F)ccc1F [Compound 80, (E)-4-((2-(4-((E)-2-(2,5-difluorophenyl)-1-(3-fluoro-1H-indazol-5-yl)but-1-en-1-yl)phenoxy)ethyl)amino)-N,N-dimethylbut-2-enamide] | 0.002 | 0.0336
CC/C(=C(/c1ccc(OCCNC/C=C/C(=O)N(C)C)cc1)c1ccc2[nH]nc(F)c2c1)c1ccccn1 [Compound 67, (E)-4-((2-(4-((E)-1-(3-fluoro-1H-indazol-5-yl)-2-(pyridin-2-yl)but-1-en-1-yl)phenoxy)ethyl)amino)-N,N-dimethylbut-2-enamide] | 0.0105 | 0.193
CC/C(=C(/c1ccc(OCCNC/C=C/C(=O)N(C)C)cc1)c1ccc2[nH]nc(F)c2c1)c1cc(F)cc(C(F)(F)F)c1 [Compound 3, (E)-4-((2-(4-((E)-1-(3-fluoro-1H-indazol-5-yl)-2-(3-fluoro-5-(trifluoromethyl)phenyl)but-1-en-1-yl)phenoxy)ethyl)amino)-N,N-dimethylbut-2-enamide] | 0.00695 ± 0.00247 | 0.159 ± 0.0918
CC/C(=C(/c1ccc(OCCNC/C=C/C(=O)N(C)C)cc1)c1ccc2[nH]nc(F)c2c1)c1ccc(F)cc1 [Compound 45] | 0.00414 | 0.104
CC/C(=C(/c1ccc(OCCNC/C=C/C(=O)N(C)C)cc1)c1ccc2[nH]nc(F)c2c1)c1ccccc1 [Compound 2, (E)-4-((2-(4-((E)-1-(3-fluoro-1H-indazol-5-yl)-2-phenylbut-1-en-1-yl)phenoxy)ethyl)amino)-N,N-dimethylbut-2-enamide] | 0.00556 ± 0.00284 | 0.0648 ± 0.0372
CC/C(=C(/c1ccc(OCCNC/C=C/C(=O)N(C)C)cc1)c1ccc2[nH]ncc2c1)c1ccccc1C(C)C [Compound 34, (E)-4-((2-(4-((E)-1-(1H-indazol-5-yl)-2-(2-isopropylphenyl)but-1-en-1-yl)phenoxy)ethyl)amino)-N,N-dimethylbut-2-enamide] | 0.0105 | 0.0936
CC/C(=C(/c1ccc(OCC(C)(C)NC/C=C/C(=O)N(C)C)cc1)c1ccc2[nH]ncc2c1)c1ccccc1 [Compound 98, (E)-4-((1-(4-((E)-1-(1H-indazol-5-yl)-2-phenylbut-1-en-1-yl)phenoxy)-2-methylpropan-2-yl)amino)-N,N-dimethylbut-2-enamide] | 0.0004 | 0.0134
CC/C(=C(/c1ccc(OCCNC/C=C/C(=O)N(C)C)cc1)c1ccc2[nH]ncc2c1)c1ccccc1OC(F)F [Compound 32, (E)-4-((2-(4-((E)-2-(2-(difluoromethoxy)phenyl)-1-(1H-indazol-5-yl)but-1-en-1-yl)phenoxy)ethyl)amino)-N,N-dimethylbut-2-enamide] | 0.00128 | 0.0229
CN(C)C(=O)/C=C/CNCCOc1ccc(/C(=C(/CC(F)(F)F)c2ccncc2F)c2ccc3[nH]nc(F)c3c2)cn1 [Compound 62, (E)-N,N-dimethyl-4-((2-((5-((Z)-4,4,4-trifluoro-1-(3-fluoro-1H-indazol-5-yl)-2-(3-fluoropyridin-4-yl)but-1-en-1-yl)pyridin-2-yl)oxy)ethyl)amino)but-2-enamide] | 0.0003 | 0.0013
CC(C)/C(=C(/c1ccc(OCCNC/C=C/C(=O)N(C)C)cc1)c1ccc2[nH]nc(F)c2c1)c1ccccc1 [Compound 82, (E)-4-((2-(4-((E)-1-(3-fluoro-1H-indazol-5-yl)-3-methyl-2-phenylbut-1-en-1-yl)phenoxy)ethyl)amino)-N,N-dimethylbut-2-enamide] | 0.00465 ± 0.0029 | 0.0937 ± 0.0063
CC/C(=C(\c1ccc2[nH]nc(F)c2c1)c1ccc(OCCNC/C=C/C(=O)N(C)C)cc1F)c1ccccc1 [Compound 64, (E)-4-((2-(3-fluoro-4-((Z)-1-(3-fluoro-1H-indazol-5-yl)-2-phenylbut-1-en-1-yl)phenoxy)ethyl)amino)-N,N-dimethylbut-2-enamide] | 0.0031 | 0.0583
C#CCN(C)C(=O)/C=C/CNCCOc1ccc(/C(=C(/CC)c2ccccc2)c2ccc3[nH]ncc3c2)cc1 [Compound 8, (E)-4-((2-(4-((E)-1-(1H-indazol-5-yl)-2-phenylbut-1-en-1-yl)phenoxy)ethyl)amino)-N-methyl-N-(prop-2-yn-1-yl)but-2-enamide] | 0.00159 | 0.0223
CC/C(=C(/c1ccc(OCCNC/C=C/C(=O)N(C)C)cc1)c1ccc2[nH]nc(F)c2c1)c1ccccc1F [Compound 43, (E)-4-((2-(4-((E)-1-(3-fluoro-1H-indazol-5-yl)-2-(2-fluorophenyl)but-1-en-1-yl)phenoxy)ethyl)amino)-N,N-dimethylbut-2-enamide] | 0.00194 | 0.0473
CC/C(=C(/c1ccc(OCCNC/C=C/C(=O)N2CCC2)cc1)c1ccc2[nH]ncc2c1)c1ccccc1 [Compound 10, (E)-4-((2-(4-((E)-1-(1H-indazol-5-yl)-2-phenylbut-1-en-1-yl)phenoxy)ethyl)amino)-1-(azetidin-1-yl)but-2-en-1-one] | 0.00222 ± 0.00234 | 0.0212 ± 0.0172
CN(C)C(=O)/C=C/CNCCOc1ccc(/C(=C(\c2ccccc2)C2CCC2)c2ccc3[nH]nc(F)c3c2)cc1 [Compound 14, (E)-4-((2-(4-((E)-2-cyclobutyl-1-(3-fluoro-1H-indazol-5-yl)-2-phenylvinyl)phenoxy)ethyl)amino)-N,N-dimethylbut-2-enamide 2,2,2-trifluoro acetate] | 0.00246 ± 0.00143 | 0.0307 ± 0.00402
CN(C)C(=O)/C=C/CNCCOc1ccc(/C(=C(\c2ccc(F)cc2Cl)C2CCC2)c2ccc3[nH]nc(F)c3c2)cc1 [Compound 46, (E)-4-((2-(4-((E)-2-(2-chloro-4-fluorophenyl)-2-cyclobutyl-1-(3-fluoro-1H-indazol-5-yl)vinyl)phenoxy)ethyl)amino)-N,N-dimethylbut-2-enamide] | 0.00095 | 0.0124
[2H]c1c([2H])c([2H])c(/C(CC)=C(\c2ccc(OCCNC/C=C/C(=O)N(C)C)cc2)c2ccc3[nH]ncc3c2)c([2H])c1[2H] [Compound 88, (E)-4-((2-(4-((E)-1-(1H-indazol-5-yl)-2-(phenyl-d5)but-1-en-1-yl)phenoxy)ethyl)amino)-N,N-dimethylbut-2-enamide] | 0.0007 | 0.0125
CC/C(=C(/c1ccc(OCCNC/C=C/C(=O)N(C)C)cc1)c1ccc2[nH]ncc2c1)c1ccc(C(C)C)cc1 [Compound 29, (E)-4-((2-(4-((E)-1-(1H-indazol-5-yl)-2-(4-isopropylphenyl)but-1-en-1-yl)phenoxy)ethyl)amino)-N,N-dimethylbut-2-enamide] | 0.00337 | 0.0587
